Each compound was assayed against GPR17 (Homo sapiens, UniProt Q13304) (assay: cAMP accumulation functional assay (HTRF), Schild analysis against MDL29,951 in CHO hGPR17). Conditions: CHO hGPR17, Schild analysis vs MDL29,951, 5 μM forskolin; read-out: cAMP assay pA2 (converted).
Type: cell-based
Design: host or cells: Flp-In T-REx CHO
Description: Flp-In T-REx CHO cells stably expressing human GPR17 receptor (CHO hGPR17) from Evi Kostenis' lab (Bonn University, Germany) were cultured at 37° C. in a humidified atmosphere of 5% CO2. Cells were grown in DMEM with Nutrient Mixture F-12 supplemented with hygromycin B (500 μg/ml) and blasticidin (30 μg/ml). Expression from the Flp-In locus was induced by treatment with doxycycline (1 μg/ml) for 16-20 h prior assays.
GPR17 activation can also recruit Gi-type G-protein signaling, resulting in a decrease of intracellular cyclic adenosine monophosphate (cAMP). Intracellular cAMP changes can be measured using the HTRF cAMP dynamic assay kit from CisBio (Codolet, France). Using homogenous time-resolved fluorescence technology (HTRF), the assay is based on competition between native cAMP produced by cells and cAMP labelled with the dye d2. The tracer binding was determined by an anti-cAMP antibody labeled with cryptate.
CHO hGPR17 were detached with PBS containing EDTA and dispatched in black 384-well plates with 5,000 cells per well. Cells were first incubated for 30 minutes at room temperature in HBSS Hepes (pH 7.4) containing vehicle or varying concentrations of test GPR17 antagonist/inverse agonist compounds. Then, a dose response curve of MDL29,951 GPR17 agonist (typically from 10^−5M to 10^−10M) was added on vehicle and on each test GPR17 antagonist/inverse agonist compound concentration in a final volume of 20 μL HBSS Hepes buffer (pH 7.4) containing 1% DMSO, 5 μM forskolin and 0.1 mM IBMX. After 60 minutes incubation at room temperature, the reaction is terminated and the cells lysed by adding the d2 detection reagent and the cryptate reagent in 10 μL lysis buffer each according to manufacturer's instructions. After 60 minutes incubation, changes in cAMP concentrations are measured according to manufacturer's instructions using an Envision plate reader with laser excitation. All incubations were performed in duplicate. Data was analyzed using GraphPad Prism software using the 4-parameter logistic equation to measure MDL29,951 pEC50s in absence and presence of GPR17 antagonist/inverse agonist test compounds. Dose ratio (DR) were plotted against antagonist concentrations and Schild analysis provided estimated affinity pA2 of GPR17 antagonist/inverse agonist test compounds.
The activities of the Example compounds tested are depicted in the table below. The activity ranges A, B and C refer to pA2 values in the cAMP assay as follows: “A”: pA2 6.5≤x<7.5, “B”: pA2 7.5≤x<8.5, “C”: 8.5≤pA2.

Chain of GPR17 (Q13304 29-367 limits assumed): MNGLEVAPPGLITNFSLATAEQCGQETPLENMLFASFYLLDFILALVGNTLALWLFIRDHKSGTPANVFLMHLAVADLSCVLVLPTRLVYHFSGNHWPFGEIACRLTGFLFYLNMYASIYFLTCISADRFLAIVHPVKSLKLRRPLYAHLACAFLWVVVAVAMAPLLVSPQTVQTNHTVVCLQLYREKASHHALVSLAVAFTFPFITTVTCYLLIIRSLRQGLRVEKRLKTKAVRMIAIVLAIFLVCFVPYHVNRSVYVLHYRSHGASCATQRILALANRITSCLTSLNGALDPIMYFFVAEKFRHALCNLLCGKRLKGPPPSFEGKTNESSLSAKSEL

| Kb | SMILES |
| --- | --- |
| 0.00316 to 0.0316 µM | Cn1cc(S(=O)(=O)Nc2cc(F)c(OC(F)F)cc2F)c2ccc(Cl)nc21 [Example I-4, 6-chloro-N-[4-(difluoromethoxy)-2,5-difluorophenyl]-1-methylpyrrolo[2,3-b]pyridine-3-sulfonamide] |
| 0.0316 to 0.316 µM | O=S(=O)(Nc1cc(F)c(OC(F)F)cc1F)c1cn(CC(F)F)c2nc(Cl)ccc12 [Example I-5, 6-chloro-1-(2,2-difluoroethyl)-N-[4-(difluoromethoxy)-2,5-difluorophenyl]pyrrolo[2,3-b]pyridine-3-sulfonamide] |
| 0.00316 to 0.0316 µM | O=S(=O)(Nc1cc(F)c(Br)cc1F)c1cn(CC(F)CO)c2cc(Cl)ccc12 (centres unmarked) [Example I-7, N-(4-bromo-2,5-difluorophenyl)-6-chloro-1-(2-fluoro-3-hydroxypropyl)indole-3-sulfonamide] |
| 0.0316 to 0.316 µM | O=S(=O)(Nc1cc(F)c(Br)cc1F)c1cn(CC(F)CO)c2nc(Cl)ccc12 (centres unmarked) [Example I-8, N-(4-bromo-2,5-difluorophenyl)-6-chloro-1-(2-fluoro-3-hydroxypropyl)pyrrolo[2,3-b]pyridine-3-sulfonamide] |
| 0.0316 to 0.316 µM | COc1nc(NS(=O)(=O)c2cn(CCO)c3cc(Cl)ccc23)ccc1Br [Example I-9, N-(5-bromo-6-methoxypyridin-2-yl)-6-chloro-1-(2-hydroxyethyl)indole-3-sulfonamide] |
| 0.00316 to 0.0316 µM | O=S(=O)(Nc1cc(F)c(Br)cc1F)c1cn(CCO)c2cc(Cl)ccc12 [Example I-10, N-(4-bromo-2,5-difluorophenyl)-6-chloro-1-(2-hydroxyethyl)indole-3-sulfonamide] |
| ≤ 0.00316 µM | O=C(O)Cn1cc(S(=O)(=O)Nc2cc(F)c(Br)cc2F)c2ccc(Cl)cc21 [Example I-11, 2-[3-[(4-bromo-2,5-difluorophenyl)sulfamoyl]-6-chloroindol-1-yl]acetic acid] |
| 0.00316 to 0.0316 µM | Cn1cc(S(=O)(=O)Nc2cc(F)c(Br)cc2F)c2ccc(Cl)cc21 [Example I-12, N-(4-bromo-2,5-difluorophenyl)-6-chloro-1-methylindole-3-sulfonamide] |
| 0.0316 to 0.316 µM | O=S(=O)(Nc1cc(F)c(Br)cc1F)c1cn(CCCl)c2cc(Cl)ccc12 [Example I-13, N-(4-bromo-2,5-difluorophenyl)-6-chloro-1-(2-chloroethyl)indole-3-sulfonamide] |
| 0.00316 to 0.0316 µM | O=S(=O)(Nc1cc(F)c(Br)cc1F)c1cn(CCOCCO)c2cc(Cl)ccc12 [Example I-16, N-(4-bromo-2,5-difluorophenyl)-6-chloro-1-[2-(2-hydroxyethoxy)ethyl]indole-3-sulfonamide] |
| 0.0316 to 0.316 µM | CC(=O)Cn1cc(S(=O)(=O)Nc2cc(F)c(Br)cc2F)c2ccc(Cl)cc21 [Example I-17, N-(4-bromo-2,5-difluorophenyl)-6-chloro-1-(2-oxopropyl)indole-3-sulfonamide] |
| 0.00316 to 0.0316 µM | O=S(=O)(Nc1cc(F)c(Br)cc1F)c1cn(CC(O)C(F)(F)F)c2cc(Cl)ccc12 (centres unmarked) [Example I-20, N-(4-bromo-2,5-difluorophenyl)-6-chloro-1-(3,3,3-trifluoro-2-hydroxypropyl)indole-3-sulfonamide] |
| 0.00316 to 0.0316 µM | O=S(=O)(Nc1cc(F)c(OC(F)F)cc1F)c1cn(CCO)c2cc(Cl)ccc12 [Example I-21, 6-chloro-N-[4-(difluoromethoxy)-2,5-difluorophenyl]-1-(2-hydroxyethyl)indole-3-sulfonamide] |
| 0.00316 to 0.0316 µM | Cn1cc(S(=O)(=O)Nc2cc(F)c(OC(F)F)cc2F)c2ccc(Cl)cc21 [Example I-22, 6-chloro-N-[4-(difluoromethoxy)-2,5-difluorophenyl]-1-methylindole-3-sulfonamide] |
| 0.0316 to 0.316 µM | CCn1cc(S(=O)(=O)Nc2cc(F)c(OC(F)F)cc2F)c2ccc(Cl)cc21 [Example I-23, 6-chloro-N-[4-(difluoromethoxy)-2,5-difluorophenyl]-1-ethylindole-3-sulfonamide] |
| 0.00316 to 0.0316 µM | O=S(=O)(Nc1cc(F)c(OC(F)F)cc1F)c1cn(CCF)c2cc(Cl)ccc12 [Example I-24, 6-chloro-N-[4-(difluoromethoxy)-2,5-difluorophenyl]-1-(2-fluoroethyl)indole-3-sulfonamide] |
| 0.00316 to 0.0316 µM | O=S(=O)(Nc1cc(F)c(Br)cc1F)c1cn(CC(O)CO)c2cc(Cl)ccc12 (centres unmarked) [Example I-28, N-(4-bromo-2,5-difluorophenyl)-6-chloro-1-(2,3-dihydroxypropyl)indole-3-sulfonamide] |
| ≤ 0.00316 µM | COc1nc(Cl)c(F)cc1NS(=O)(=O)c1cn(CC(O)CF)c2cc(Cl)ccc12 (centres unmarked) [Example I-33, 6-chloro-N-(6-chloro-5-fluoro-2-methoxypyridin-3-yl)-1-(3-fluoro-2-hydroxypropyl)indole-3-sulfonamide] |

Continued, compound first:

| SMILES | Kb |
| --- | --- |
| Cn1cc(S(=O)(=O)Nc2cc(F)c(Br)cc2F)c2ccc(Cl)nc21 [Example I-3, N-(4-bromo-2,5-difluorophenyl)-6-chloro-1-methylpyrrolo[2,3-b]pyridine-3-sulfonamide] | 0.00316 to 0.0316 µM |
| O=S(=O)(Nc1cc(F)c(Br)cc1F)c1cn(CC(F)F)c2nc(Cl)ccc12 [Example I-6, N-(4-bromo-2,5-difluorophenyl)-6-chloro-1-(2,2-difluoroethyl)pyrrolo[2,3-b]pyridine-3-sulfonamide] | 0.0316 to 0.316 µM |
| O=S(=O)(Nc1cc(F)c(Br)cc1F)c1cn(CCCO)c2cc(Cl)ccc12 [Example I-14, N-(4-bromo-2,5-difluorophenyl)-6-chloro-1-(3-hydroxypropyl)indole-3-sulfonamide] | 0.0316 to 0.316 µM |
| CN(C)CCn1cc(S(=O)(=O)Nc2cc(F)c(Br)cc2F)c2ccc(Cl)cc21 [Example I-15, N-(4-bromo-2,5-difluorophenyl)-6-chloro-1-[2-(dimethylamino)ethyl]indole-3-sulfonamide] | 0.0316 to 0.316 µM |
| CC(O)Cn1cc(S(=O)(=O)Nc2cc(F)c(Br)cc2F)c2ccc(Cl)cc21 (centres unmarked) [Example I-18, N-(4-bromo-2,5-difluorophenyl)-6-chloro-1-(2-hydroxypropyl)indole-3-sulfonamide] | ≤ 0.00316 µM |
| O=S(=O)(Nc1cc(F)c(Br)cc1F)c1cn(CC(O)CF)c2cc(Cl)ccc12 (centres unmarked) [Example I-19, N-(4-bromo-2,5-difluorophenyl)-6-chloro-1-(3-fluoro-2-hydroxypropyl)indole-3-sulfonamide] | 0.00316 to 0.0316 µM |
| CCCn1cc(S(=O)(=O)Nc2cc(F)c(OC(F)F)cc2F)c2ccc(Cl)cc21 [Example I-25, 6-chloro-N-[4-(difluoromethoxy)-2,5-difluorophenyl]-1-propylindole-3-sulfonamide] | 0.0316 to 0.316 µM |
| COCCn1cc(S(=O)(=O)Nc2cc(F)c(OC(F)F)cc2F)c2ccc(Cl)cc21 [Example I-26, 6-chloro-N-[4-(difluoromethoxy)-2,5-difluorophenyl]-1-(2-methoxyethyl)indole-3-sulfonamide] | 0.0316 to 0.316 µM |
| O=S(=O)(Nc1cc(F)c(OC(F)F)cc1F)c1cn(CC(O)CO)c2cc(Cl)ccc12 (centres unmarked) [Example I-27, 6-chloro-N-[4-(difluoromethoxy)-2,5-difluorophenyl]-1-(2,3-dihydroxypropyl)indole-3-sulfonamide] | ≤ 0.00316 µM |
| O=S(=O)(Nc1cc(F)c(Br)cc1F)c1cn(CC(O)CO)c2nc(Cl)ccc12 (centres unmarked) [Example I-29, N-(4-bromo-2,5-difluorophenyl)-6-chloro-1-(2,3-dihydroxypropyl)pyrrolo[2,3-b]pyridine-3-sulfonamide] | 0.00316 to 0.0316 µM |
| O=S(=O)(Nc1cc(F)c(Br)cc1F)c1cn(CCO)c2nc(Cl)ccc12 [Example I-30, N-(4-bromo-2,5-difluorophenyl)-6-chloro-1-(2-hydroxyethyl)pyrrolo[2,3-b]pyridine-3-sulfonamide] | 0.00316 to 0.0316 µM |
| COc1nc(Cl)c(F)cc1NS(=O)(=O)c1cn(C)c2cc(Cl)ccc12 [Example I-31, 6-chloro-N-(6-chloro-5-fluoro-2-methoxypyridin-3-yl)-1-methylindole-3-sulfonamide] | 0.00316 to 0.0316 µM |
| COc1nc(Cl)c(F)cc1NS(=O)(=O)c1cn(CC(F)F)c2cc(Cl)ccc12 [Example I-32, 6-chloro-N-(6-chloro-5-fluoro-2-methoxypyridin-3-yl)-1-(2,2-difluoroethyl)indole-3-sulfonamide] | 0.00316 to 0.0316 µM |
| COc1nc(Cl)c(F)cc1NS(=O)(=O)c1cn(CC(O)CO)c2cc(Cl)ccc12 (centres unmarked) [Example I-34, 6-chloro-N-(6-chloro-5-fluoro-2-methoxypyridin-3-yl)-1-(2,3-dihydroxypropyl)indole-3-sulfonamide] | 0.00316 to 0.0316 µM |

From patent publication US12358875B2, “N-(phenyl)-indole-3-sulfonamide derivatives and related compounds as GPR17 modulators for treating CNS disorders such as multiple sclerosis” (UCB Pharma GMBH, priority 2019, dated 2025)
